The target of experiment [1] is T1, hPR (Homo sapiens, UniProt P06401).
T1 sequence (P06401 1-933): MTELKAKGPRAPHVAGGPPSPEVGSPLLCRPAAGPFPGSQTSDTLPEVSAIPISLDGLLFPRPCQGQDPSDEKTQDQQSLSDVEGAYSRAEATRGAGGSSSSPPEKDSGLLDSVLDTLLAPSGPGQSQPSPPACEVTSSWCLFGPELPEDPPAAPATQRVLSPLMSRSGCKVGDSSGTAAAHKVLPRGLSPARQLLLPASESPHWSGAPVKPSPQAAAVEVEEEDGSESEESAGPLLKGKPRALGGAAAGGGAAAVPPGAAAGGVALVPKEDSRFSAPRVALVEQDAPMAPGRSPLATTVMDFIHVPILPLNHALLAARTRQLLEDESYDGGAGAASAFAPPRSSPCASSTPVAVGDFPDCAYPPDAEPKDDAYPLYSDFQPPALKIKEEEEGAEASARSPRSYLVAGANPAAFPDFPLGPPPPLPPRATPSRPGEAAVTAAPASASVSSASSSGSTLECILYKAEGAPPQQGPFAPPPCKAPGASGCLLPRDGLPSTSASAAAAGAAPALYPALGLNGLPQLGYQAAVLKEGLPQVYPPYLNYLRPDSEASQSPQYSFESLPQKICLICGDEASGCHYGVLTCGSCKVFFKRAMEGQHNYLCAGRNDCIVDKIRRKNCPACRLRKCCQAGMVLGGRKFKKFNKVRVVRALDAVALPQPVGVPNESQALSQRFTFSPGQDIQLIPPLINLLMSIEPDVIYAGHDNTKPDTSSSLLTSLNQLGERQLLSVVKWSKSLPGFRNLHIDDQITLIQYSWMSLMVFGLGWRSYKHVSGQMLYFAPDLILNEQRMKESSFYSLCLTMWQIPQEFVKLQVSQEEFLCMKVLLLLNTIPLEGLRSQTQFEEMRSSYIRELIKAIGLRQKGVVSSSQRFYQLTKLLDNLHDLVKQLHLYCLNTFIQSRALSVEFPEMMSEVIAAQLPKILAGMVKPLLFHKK
The experiment in a line: hPR cotransfection assay in CV-1 cells, agonist mode. The settings on record: for Emax: CV-1, CV-1 cells, relative to maximal response of progesterone as 100%, read-out: hPR Agonist CV-1 Cells Eff. (%). The experiment is classed as cell-based.
Experimental: (§1) Antagonist efficacy was determined as a function (%) of maximal inhibition of a reference agonist at EC50 concentration. All the cotransfection experiments were carried out in 96-well plates by automation (Beckman Biomomek automated workstation).

Experiment [2] deals with T2, human estrogen receptor (hER) (Homo sapiens, UniProt P03372).
T2 sequence (P03372 1-595): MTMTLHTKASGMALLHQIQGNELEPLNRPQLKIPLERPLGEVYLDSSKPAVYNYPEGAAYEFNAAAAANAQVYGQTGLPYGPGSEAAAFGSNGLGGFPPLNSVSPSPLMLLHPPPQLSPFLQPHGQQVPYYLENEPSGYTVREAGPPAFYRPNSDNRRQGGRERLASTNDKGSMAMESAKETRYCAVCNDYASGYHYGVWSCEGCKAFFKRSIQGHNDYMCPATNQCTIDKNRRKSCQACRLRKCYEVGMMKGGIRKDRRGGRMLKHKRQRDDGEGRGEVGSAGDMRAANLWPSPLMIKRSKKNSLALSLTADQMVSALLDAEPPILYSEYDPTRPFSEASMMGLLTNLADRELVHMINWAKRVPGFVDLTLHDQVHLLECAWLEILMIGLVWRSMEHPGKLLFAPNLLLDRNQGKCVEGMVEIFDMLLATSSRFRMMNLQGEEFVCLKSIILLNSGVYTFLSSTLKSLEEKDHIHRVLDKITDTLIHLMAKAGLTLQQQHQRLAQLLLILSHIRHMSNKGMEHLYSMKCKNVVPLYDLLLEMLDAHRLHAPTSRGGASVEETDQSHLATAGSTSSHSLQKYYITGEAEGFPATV
The experiment can be described thus: hER cotransfection assay (potency ratio to hPR). The experiment is classed as cell-based. As to conditions: receptor-selectivity potency ratio, cotransfection assays.
Experimental: as §1

Experiment [3] deals with immature rabbits. The experiment in a line: McPhail (Clauberg) rabbit assay of progestational activity. As to conditions: Oryctolagus cuniculus; estradiol-primed immature rabbits; glandular changes of the uterus; read-out: potency (MAD in mg/kg), minimum active dose. The experiment is classed as in vivo.
Experiment [4] addresses T3, hGR (Homo sapiens, UniProt P04150).
T3 sequence (P04150 1-777): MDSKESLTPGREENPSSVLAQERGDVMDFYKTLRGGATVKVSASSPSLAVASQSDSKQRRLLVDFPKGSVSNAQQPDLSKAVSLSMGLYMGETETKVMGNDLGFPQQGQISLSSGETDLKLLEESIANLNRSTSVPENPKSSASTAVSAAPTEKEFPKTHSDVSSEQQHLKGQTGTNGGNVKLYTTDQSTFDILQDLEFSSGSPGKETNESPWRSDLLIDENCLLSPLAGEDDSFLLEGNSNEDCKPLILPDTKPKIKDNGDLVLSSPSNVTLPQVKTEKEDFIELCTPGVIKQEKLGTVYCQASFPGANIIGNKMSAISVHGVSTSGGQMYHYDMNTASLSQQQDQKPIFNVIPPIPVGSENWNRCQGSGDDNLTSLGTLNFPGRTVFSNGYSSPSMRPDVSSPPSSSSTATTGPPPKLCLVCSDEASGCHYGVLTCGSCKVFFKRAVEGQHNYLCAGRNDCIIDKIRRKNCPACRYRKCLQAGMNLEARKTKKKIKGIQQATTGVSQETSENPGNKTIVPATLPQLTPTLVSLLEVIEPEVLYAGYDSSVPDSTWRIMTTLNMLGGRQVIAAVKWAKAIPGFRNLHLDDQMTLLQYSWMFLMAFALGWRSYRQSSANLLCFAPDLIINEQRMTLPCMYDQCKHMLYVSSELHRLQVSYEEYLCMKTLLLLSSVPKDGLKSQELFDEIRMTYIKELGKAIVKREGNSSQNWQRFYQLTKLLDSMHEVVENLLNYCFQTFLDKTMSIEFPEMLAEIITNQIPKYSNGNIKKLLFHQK
The experiment in a line: hGR cotransfection assay (potency ratio to hPR). The experiment is classed as cell-based. The settings on record: receptor-selectivity potency ratio, cotransfection assays.
Experimental: as §1

The subject of experiment [5] is ovariectomized female rats. The experiment can be described thus: Multi-endpoint adult rat model, uterus/breast tissue-selectivity. The experiment is classed as in vivo. The settings on record: ratio of relative efficacy to MPA in uterus verse in breast tissue at the same highest dose tested; estrone-treated ovariectomized rats, three days.
Text: In this assay, advantage is taken of the fact that in the uterus, estrogens induce a proliferation and increase in the epithelial cell height and uterine wet weight, which can be antagonized by progestins. In the breast, estrogens induce a proliferation of the ductal network while progestins stimulate the growth of the lobular-alveolar end buds, which grow from the distal end of the ducts. […] Proliferating cells or inhibition of proliferating cells were quantitated either by measurements of cell height in sectioned and stained tissue samples or, in the case of the breast, immuno-histochemically labeled Brdu incorporated nuclei.
The mark [6] stands for this setting: CV-1 cells, read-out: hPR Agonist CV-1 Cells EC50.
Where [7] appears, read: Tables 3 and 4, values without footnote, read-out: hPR agonist potencies (EC50 in nM) in the cotransfection assay.

Each structure is given as a SMILES string. Read-outs that look alike come from different tables or passages of the source.

For `CC1=CC(C)(C)Nc2ccc3c(c21)/C(=C/c1cc(F)ccc1F)Oc1c(F)cc(F)cc1-3` [Compound 17, 7,9-difluoro-5(Z)-(2,5-difluorobenzylidene)-1,2-dihydro-2,2,4-trimethyl-5H-chromeno[3,4-f]quinoline], the Emax in experiment [1] stood at 169%. Moreover, the concentration giving a half-maximal response (EC50) in experiment [1] (setting [6]) and in experiment [1] (setting [7]) was 2.9 nM each time. Also, in experiment [2], the “hER EC50 or IC50/hPR EC50” value is above 1000. For the same compound, the minimal effective dose in experiment [3] is 0.25 mg/kg. Also, the “hGR EC50 or IC50/hPR EC50” value in experiment [4] came out at 66. Besides, the uterus/breast tissue-selectivity in experiment [5] is 2.7.

For `CC1=CC(C)(C)Nc2ccc3c(c21)/C(=C/c1cc(F)ccc1C)Oc1c(F)cc(F)cc1-3` [Compound 19, 7,9-difluoro-5(Z)-(2-methyl-5-fluorobenzylidene)-1,2-dihydro-2,2,4-trimethyl-5H-chromeno[3,4-f]quinoline], the Emax in experiment [1] turned out to be 212%. Besides, the half-maximal effective concentration (EC50) in experiment [1] (setting [6]) and in experiment [1] (setting [7]) was 1.4 nM in each case. The “hER EC50 or IC50/hPR EC50” value in experiment [2] is on record as above 1000. Moreover, the minimal effective dose in experiment [3] was found to be 0.1 mg/kg. Also, the “hGR EC50 or IC50/hPR EC50” value in experiment [4] turned out to be 432. Further, the uterus/breast tissue-selectivity in experiment [5] amounted to 3.5.

For the compound `COc1ccc(F)cc1/C=C1\Oc2c(F)cc(F)cc2-c2ccc3c(c21)C(C)=CC(C)(C)N3` [Compound 26, 7,9-difluoro-5(Z)-(2-methoxy-5-fluorobenzylidene)-1,2-dihydro-2,2,4-trimethyl-5H-chromeno[3,4-f]quinoline], the Emax in experiment [1] came to 159%. Moreover, the half-maximal effective concentration (EC50) in experiment [1] (setting [6]) and in experiment [1] (setting [7]) was 0.6 nM in each case. Further, the “hER EC50 or IC50/hPR EC50” value in experiment [2] was above 1000. For the same compound, in experiment [3], the minimal effective dose was determined as 2 mg/kg. In addition, the “hGR EC50 or IC50/hPR EC50” value in experiment [4] was 342.

For `CC1=CC(C)(C)Nc2ccc3c(c21)/C(=C/c1cccs1)Oc1c(F)cc(F)cc1-3` [Compound 31, 7,9-difluoro-5(Z)-(2-thienylmethylidene)-1,2-dihydro-2,2,4-trimethyl-5H-chromeno[3,4-f]quinoline], the Emax in experiment [1] amounted to 171%. Besides, the EC50 in experiment [1] (setting [6]) and in experiment [1] (setting [7]) was 2.7 nM each time. Besides, in experiment [2], the “hER EC50 or IC50/hPR EC50” value is above 1000. In addition, the “hGR EC50 or IC50/hPR EC50” value in experiment [4] is given as 59. Further, the uterus/breast tissue-selectivity in experiment [5] was found to be 3.5.

The record behind these values is patent US7163946B2 (Ligand Pharmaceuticals Incorporated, priority 2002, dated 2007).
